In PMC8320704 (Journal of medicinal chemistry, 2015):
Values joined by “and” are separate entries in the source; they are usually repeats but may differ in a detail not shown here. Equal entries are not always repeated. Where two headings read alike, the source gives them in different places.

Experiments:
HIV-1 IN (ST) [1] = biological target: T1, HIV-1 IN (ST) (Human immunodeficiency virus type 1 group M subtype B, UniProt P04585); assay: HIV-1 IN gel-based assay, strand transfer; assay type: biochemical
HIV-1 IN (3′-P) [2] = biological target: T2, HIV-1 IN (3′-P) (Human immunodeficiency virus type 1 group M subtype B, UniProt P04585); assay: HIV-1 IN gel-based assay, 3′-processing; assay type: biochemical
HIV-1 RT RNase H = HIV-1 RT RNase H (Human immunodeficiency virus type 1 group M subtype B, UniProt P04585); assay: HIV-1 RT RNase H inhibition; assay type: biochemical
HIV-1 IN (ST) [3] = biological target: T1, HIV-1 IN (ST); details: read-out: ST IC50, previously reported compound; cited from earlier work
HIV-1 IN (3′-P) [4] = biological target: T2, HIV-1 IN (3′-P); details: read-out: 3′-P IC50, previously reported compounds; cited from earlier work

O=C(O)/C(O)=C/C(=O)c1cn(CCCCc2ccccc2)c2ccccc2c1=O [11x, 2-Hydroxy-4-oxo-4-(4-oxo-1-(4-phenylbutyl)-1,4-dihydroquinolin-3-yl)but-2-enoic Acid]
IC50 (HIV-1 IN (ST) [1]): < 0.45 µM
IC50 (HIV-1 IN (3′-P) [2]): > 333 µM

O=C(O)/C(O)=C/C(=O)c1cn(Cc2ccc(F)cc2)c2cc(Cl)c(Cl)cc2c1=O [compound 8]
IC50 (HIV-1 RT RNase H; RNase H IC50, text): 42 µM
IC50 (HIV-1 IN (ST) [3]): 0.033 µM and 0.04 µM
IC50 (HIV-1 IN (3′-P) [4]): > 50 µM

CCOC(=O)/C(O)=C/C(=O)c1cn(Cc2ccc([N+](=O)[O-])cc2)c2ccccc2c1=O [10i, 4-[1-(4-Nitrophenyl)methyl-4(1H)-quinolinon-3-yl]-2-hydroxy-4-oxo-2-butenoic Acid Ethyl Ester]
IC50 (HIV-1 IN (ST) [1]): > 37 µM
IC50 (HIV-1 IN (3′-P) [2]): > 37 µM

CCOC(=O)/C(O)=C/C(=O)c1cn(Cc2ccc(Cl)cc2)c2ccccc2c1=O [10f, 4-[1-(4-Chlorophenyl)methyl-4(1H)-quinolinon-3-yl]-2-hydroxy-4-oxo-2-butenoic Acid Ethyl Ester]
IC50 (HIV-1 IN (ST) [1]): > 37 µM
IC50 (HIV-1 IN (3′-P) [2]): > 37 µM

CCOC(=O)/C(O)=C/C(=O)c1cn(Cc2ccc(C)cc2C)c2ccccc2c1=O [10q, 4-[1-(2,4-Dimethylphenyl)methyl-4(1H)-quinolinon-3-yl]-2-hydroxy-4-oxo-2-butenoic Acid Ethyl Ester]
IC50 (HIV-1 RT RNase H; RNase H IC50, Table 1): > 50 µM
IC50 (HIV-1 IN (ST) [1]): > 111 µM

CCOC(=O)/C(O)=C/C(=O)c1cn(Cc2ccc(Cl)cc2Cl)c2ccccc2c1=O [10o, 4-[1-(2,4-Dichlorophenyl)methyl-4(1H)-quinolinon-3-yl]-2-hydroxy-4-oxo-2-butenoic Acid Ethyl Ester]
IC50 (HIV-1 RT RNase H; RNase H IC50, Table 1): > 50 µM
IC50 (HIV-1 IN (ST) [1]): > 111 µM

CCOC(=O)/C(O)=C/C(=O)c1cn(Cc2ccc(OC)cc2)c2ccccc2c1=O [10h, 4-[1-(4-Methoxyphenyl)methyl-4(1H)-quinolinon-3-yl]-2-hydroxy-4-oxo-2-butenoic Acid Ethyl Ester]
IC50 (HIV-1 IN (ST) [1]): > 37 µM
IC50 (HIV-1 IN (3′-P) [2]): > 37 µM
